# Results published in ChEMBL document CHEMBL3085716, “Hytramycins V and I, anti-Mycobacterium tuberculosis hexapeptides from a Streptomyces hygroscopicus strain” (J Nat Prod, 2013).
# What was measured:
# [1] = test system: Mycobacterium tuberculosis; assay: Antimycobacterial activity against Mycobacterium tuberculosis H37Rv under normoxic condition after 7 days by MABA assay in presence of 10% fetal bovine serum; assay type: functional; conditions: 168 h
# [2] = test system: Mycobacterium tuberculosis; assay: Antimycobacterial activity against Mycobacterium tuberculosis H37Rv under normoxic condition after 7 days by MABA assay in presence of 4% bovine serum albumin; assay type: functional; conditions: 168 h
# [3] = test system: Streptococcus pneumoniae; assay: Antibacterial activity against Streptococcus pneumoniae ATCC 49619 after 20 hrs; assay type: functional; conditions: ATCC 49619, 20 h
# [4] = test system: Pseudomonas aeruginosa; assay: Antibacterial activity against Pseudomonas aeruginosa ATCC 27853 after 16 hrs; assay type: functional; conditions: ATCC 27853, 16 h
# [5] = test system: Enterococcus faecalis; assay: Antibacterial activity against Enterococcus faecalis ATCC 29212 after 16 hrs; assay type: functional; conditions: ATCC 29212, 16 h
# [6] = test system: Mycolicibacterium smegmatis; assay: Antimycobacterial activity against Mycobacterium smegmatis ATCC 700084 under normoxic condition after 72 hrs by MABA assay; assay type: functional; conditions: ATCC 700084, 72 h
# [7] = test system: Mycobacterium tuberculosis; assay: Antimycobacterial activity against Mycobacterium tuberculosis clinical isolate X005319 under normoxic condition after 7 days by MABA assay; assay type: functional; conditions: clinical isolate X005319, 168 h
# [8] = test system: Mycobacterium tuberculosis; assay: Antimycobacterial activity against Mycobacterium tuberculosis clinical isolate X005282 under normoxic condition after 7 days by MABA assay; assay type: functional; conditions: clinical isolate X005282, 168 h
# [9] = test system: Mycobacterium tuberculosis; assay: Antimycobacterial activity against Mycobacterium tuberculosis clinical isolate X004439 under normoxic condition after 7 days by MABA assay; assay type: functional; conditions: clinical isolate X004439, 168 h
# [10] = test system: Mycobacterium tuberculosis; assay: Antimycobacterial activity against Mycobacterium tuberculosis clinical isolate X004244 under normoxic condition after 7 days by MABA assay; assay type: functional; conditions: clinical isolate X004244, 168 h
# [11] = test system: Mycobacterium tuberculosis; assay: Antimycobacterial activity against Mycobacterium tuberculosis clinical isolate X003899 under normoxic condition after 7 days by MABA assay; assay type: functional; conditions: clinical isolate X003899, 168 h
# [12] = test system: Mycobacterium tuberculosis; assay: Antimycobacterial activity against Mycobacterium tuberculosis clinical isolate X001354 under normoxic condition after 7 days by MABA assay; assay type: functional; conditions: clinical isolate X001354, 168 h
# [13] = test system: Vero; assay: Cytotoxicity against african green monkey Vero cells; assay type: cell-based; conditions: Chlorocebus sabaeus
# [14] = test system: Mycobacterium tuberculosis; assay: Antimycobacterial activity against Mycobacterium tuberculosis H37Rv under normoxic condition after 7 days by MABA assay; assay type: functional
# [15] = test system: Mycobacterium tuberculosis; assay: Ratio of MIC for Mycobacterium tuberculosis H37Rv under normoxic condition in presence of 10% fetal bovine serum to MIC for Mycobacterium tuberculosis H37Rv under normoxic condition in absence of 10% fetal bovine serum by MABA assay; assay type: functional
# [16] = test system: Mycobacterium tuberculosis; assay: Ratio of MIC for Mycobacterium tuberculosis H37Rv under normoxic condition in presence of 4% bovine serum albumin to MIC for Mycobacterium tuberculosis H37Rv under normoxic condition in absence of 4% bovine serum albumin by MABA assay; assay type: functional
# [17] = test system: Pseudomonas aeruginosa; assay: Antibacterial activity against Pseudomonas aeruginosa ATCC 27853 at 10 ug/ml after 16 hrs; assay type: functional; conditions: ATCC 27853, 16 h
# [18] = test system: Candida albicans; assay: Antifungal activity against Candida albicans ATCC 10231 at 10 ug/ml after 48 hrs; assay type: functional; conditions: ATCC 10231, 48 h
# [19] = test system: Candida albicans; assay: Antifungal activity against Candida albicans ATCC 10231 after 48 hrs; assay type: functional; conditions: ATCC 10231, 48 h
# [20] = test system: Staphylococcus aureus; assay: Antibacterial activity against Staphylococcus aureus ATCC 29213 at 10 ug/ml after 16 hrs; assay type: functional; conditions: ATCC 29213, 16 h
# [21] = test system: Staphylococcus aureus; assay: Antibacterial activity against Staphylococcus aureus ATCC 29213 after 16 hrs; assay type: functional; conditions: ATCC 29213, 16 h
# [22] = test system: Escherichia coli; assay: Antibacterial activity against Escherichia coli ATCC 25922 at 10 ug/ml after 16 hrs; assay type: functional; conditions: ATCC 25922, 16 h
# [23] = test system: Escherichia coli; assay: Antibacterial activity against Escherichia coli ATCC 25922 after 16 hrs; assay type: functional; conditions: ATCC 25922, 16 h
# [24] = test system: Acinetobacter baumannii; assay: Antibacterial activity against Acinetobacter baumannii ATCC BAA-747 at 10 ug/ml after 16 hrs; assay type: functional; conditions: ATCC BAA-747, 16 h
# [25] = test system: Acinetobacter baumannii; assay: Antibacterial activity against Acinetobacter baumannii ATCC BAA-747 after 16 hrs; assay type: functional; conditions: ATCC BAA-747, 16 h
# [26] = Mycobacterium tuberculosis, H37Rv, 168 h
compound,measurement,setting,value
CO[C@H]1/C=C/O[C@@]2(C)Oc3c(C)c(O)c4c(O)c(c(/C=N/N5CCN(C)CC5)c(O)c4c3C2=O)NC(=O)/C(C)=C\C=C\[C@H](C)[C@H](O)[C@@H](C)[C@@H](O)[C@@H](C)[C@H](OC(C)=O)[C@@H]1C [RIFAMPIN],MIC90,[1],< 0.02 µg/mL
same,MIC90,[2],0.02 µg/mL
same,MIC90,[3],< 0.01 µg/mL
same,MIC90,[4],17.8 µg/mL
same,MIC90,[5],0.2 µg/mL
same,MIC90,[6],< 0.3 µg/mL
same,MIC90,[7],0.1 µg/mL
same,MIC90,[8],0.03 µg/mL
same,MIC90,[9],0.02 µg/mL
same,MIC90,[10],0.1 µg/mL
same,MIC90,[11],0.1 µg/mL
same,MIC90,[12],0.02 µg/mL
same,IC50,[13],143 µg/mL
same,MBC90,[14],0.1 µg/mL
same,MIC90,[14]; [26],< 0.02 µg/mL
Cc1ncc([N+](=O)[O-])n1CCO [METRONIDAZOLE],MIC90,[1],> 87.6 µg/mL
same,MIC90,[2],> 87.6 µg/mL
same,MIC90,[7],> 87.6 µg/mL
same,MIC90,[8],> 87.6 µg/mL
same,MIC90,[9],> 87.6 µg/mL
same,MIC90,[10],> 87.6 µg/mL
same,MIC90,[11],> 87.6 µg/mL
same,MIC90,[12],> 87.6 µg/mL
same,MIC90,[14]; [26],> 87.6 µg/mL
CN[C@H](CC(C)C)C(=O)N[C@H]1C(=O)N[C@@H](CC(N)=O)C(=O)N[C@H]2C(=O)N[C@H]3C(=O)N[C@H](C(=O)N[C@H](C(=O)O)c4cc(O)cc(O)c4-c4cc3ccc4O)[C@H](O)c3ccc(c(Cl)c3)Oc3cc2cc(c3O[C@@H]2O[C@H](CO)[C@@H](O)[C@H](O)[C@H]2O[C@H]2C[C@](C)(N)[C@H](O)[C@H](C)O2)Oc2ccc(cc2Cl)[C@H]1O [VANCOMYCIN],MIC90,[3],0.1 µg/mL
same,MIC90,[5],2.3 µg/mL
CC(C)[C@H]1NC(=O)[C@@H]2C[C@@]3(O)c4ccc(Cl)cc4N[C@H]3N2C(=O)[C@H]2CCCNN2C(=O)[C@H](C)N(C)C(=O)[C@H]2CCCNN2C(=O)[C@@H]2CCCNN2C1=O,MIC,[14]; [26],18.6 µg/mL
NNC(=O)c1ccncc1 [ISONIAZID],MIC90,[1],0.04 µg/mL
same,MIC90,[2],0.1 µg/mL
same,MIC90,[6],12.7 µg/mL
same,MIC90,[7],0.9 µg/mL
same,MIC90,[8],0.1 µg/mL
same,MIC90,[9],0.1 µg/mL
same,MIC90,[10],> 1.1 µg/mL
same,MIC90,[11],0.1 µg/mL
same,MIC90,[12],0.1 µg/mL
same,MIC90,[14]; [26],0.03 µg/mL
CC(C)/N=c1\cc2n(-c3ccc(Cl)cc3)c3ccccc3nc-2cc1Nc1ccc(Cl)cc1 [CLOFAZIMINE],MIC90,[6],1.1 µg/mL
CC1COc2c(N3CCN(C)CC3)c(F)cc3c(=O)c(C(=O)O)cn1c23 (stereo not given) [OFLOXACIN],MIC90,[3],1.1 µg/mL
same,MIC90,[4],1.2 µg/mL
same,MIC90,[5],2.3 µg/mL
CC(C)C[C@@H]1NC(=O)[C@H]2CCCNN2C(=O)[C@H](C)N(C)C(=O)[C@H]2CCCNN2C(=O)[C@@H]2CCCNN2C(=O)[C@@H](C(C)C)NC1=O,Ratio,[15],2
same,Ratio,[16],2
same,MIC90,[1],29.2 µg/mL
same,MIC90,[2],24.1 µg/mL
same,MIC90,[3],8.4 µg/mL
same,inhibition at 10 µg/mL,[17],7%
same,MIC90,[4],> 10 µg/mL
same,MIC90,[5],8 µg/mL
same,inhibition at 10 µg/mL,[18],17%
same,MIC90,[19],> 10 µg/mL
same,inhibition at 10 µg/mL,[20],86%
same,MIC90,[21],> 10 µg/mL
same,inhibition at 10 µg/mL,[22],17%
same,MIC90,[23],> 10 µg/mL
same,inhibition at 10 µg/mL,[24],37%
same,MIC90,[25],> 10 µg/mL
same,MIC90,[6],> 10 µg/mL
same,MIC90,[7],19.2 µg/mL
same,MIC90,[8],9.6 µg/mL
same,MIC90,[9],9.3 µg/mL
same,MIC90,[10],16.9 µg/mL
same,MIC90,[11],22.9 µg/mL
same,MIC90,[12],9.7 µg/mL
same,IC50,[13],24.2 µg/mL
same,MBC90,[14],>50 µg/mL
same,MIC90,[14]; [26],11.3 µg/mL
NCC[C@H](O)C(=O)N[C@@H]1C[C@H](N)[C@@H](O[C@H]2O[C@H](CN)[C@@H](O)[C@H](O)[C@H]2O)[C@H](O)[C@H]1O[C@H]1O[C@H](CO)[C@@H](O)[C@H](N)[C@H]1O [AMIKACIN],MIC90,[4],1.8 µg/mL
CN(C)[C@@H]1C(O)=C(C(N)=O)C(=O)[C@@]2(O)C(O)=C3C(=O)c4c(O)ccc(Cl)c4[C@@H](O)[C@H]3C[C@@H]12 [DEMECLOCYCLINE],MIC90,[25],0.1 µg/mL
C[C@@H]1[C@H](O)[C@@H](C)/C=C/C=C/C=C/C=C/C=C/C=C/C=C/[C@H](O[C@@H]2O[C@H](C)[C@@H](O)[C@H](N)[C@@H]2O)C[C@@H]2O[C@](O)(C[C@@H](O)C[C@@H](O)[C@H](O)CC[C@@H](O)C[C@@H](O)CC(=O)O[C@H]1C)C[C@H](O)[C@H]2C(=O)O [AMPHOTERICIN B],MIC90,[19],0.4 µg/mL
